test: recombinant barcode read abundance after kanamycin selection (control-corrected) (log10(CPM+1)); higher = more efficient recombination; sequences stand for … in AGTGCAGAGAAAATCGGCCAGTTTTCTCTGCCTGCAGTCCGCATGCCGT…AGATTTATGCAGCGGACTGCCTTTCTCCCAAAGTGATAAACCGGACAGTATCATGGACCGGTTTTCCCGGTAATCCGTATTTGCAAGGTTGGTTTCACT; site = the 11-nt target
Outline: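 Values are log10(CPM+1) from a pooled E. coli screen of targets paired with IS621 bridge RNA target-binding loops. Recombination efficiency here means counts per million of recombinant-junction barcodes, averaged and control-corrected. Plates were chloramphenicol/ampicillin LB agar for the control and chloramphenicol/ampicillin/kanamycin with 0.1 mM IPTG, two replicates each.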
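Note: IS621 recombinase and bridge RNA in Escherichia coli cells.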

Sequence | recombinant barcode read abundance (log10)
GCCTCGTCTTGGGTTCTAACCTGTTGCCT (site GCATCGTCTAG) | 0.0638
GCCTCGTCTTGGGTTCTAACCTGTTGCCT (site GCCTCGTCTAG) | 0.68
GCCTCGTCTTGGGTTCTAACCTGTTGCCT (site GCGTCGTCTAG) | 0.206
GCCTCGTCTTGGGTTCTAACCTGTTGCCT (site GCTTCGTCTAG) | 0.0462
GCCTGAGCTTGGGTTCTAACCTGTTGCCT (site GCATGAGCTAG) | 0
GCCTGAGCTTGGGTTCTAACCTGTTGCCT (site GCCTGAGCTAG) | 0.303
GCCTGAGCTTGGGTTCTAACCTGTTGCCT (site GCGTGAGCTAG) | 0.272
GCCTGAGCTTGGGTTCTAACCTGTTGCCT (site GCTTGAGCTAG) | 0
GCCTGGGCTTGGGTTCTAACCTGTTGCCG (site GCCAGGGCTCG) | 0.0298
GCCTGGGCTTGGGTTCTAACCTGTTGCCG (site GCCCGGGCTCG) | 0.516
GCCTGGGCTTGGGTTCTAACCTGTTGCCG (site GCCGGGGCTCG) | 0.114
GCCTGGGCTTGGGTTCTAACCTGTTGCCG (site GCCTGGGCTCG) | 0.72
GCCTGGGCTTGGGTTCTAACCTGTTGCCT (site GCCTGGGCTAG) | 0.317
GCCTGGGCTTGGGTTCTAACCTGTTGCCT (site GCCTTGGCTAG) | 0.438
GCCTTGGCTTGGGTTCTAACCTGTTGCCT (site GCCTGGGCTAG) | 0.195
GCCTTGGCTTGGGTTCTAACCTGTTGCCT (site GCCTTGGCTAG) | 0.572
GCGAACCCTTGGGTTCTAACCTGTTGCTT (site GCGAACCCTAA) | 1.47
GCGAACCCTTGGGTTCTAACCTGTTGCTT (site TCGAACCCTAA) | 0.0595
GCGACTCCTTGGGTTCTAACCTGTTGCTT (site GCGACTCCTAA) | 0.0299
GCGACTCCTTGGGTTCTAACCTGTTGCTT (site GCGACTCCTAG) | 0.0916
GCGCACACTTGGGTTCTAACCTGTTGCCT (site ACGCACACTAG) | 0.851
GCGCACACTTGGGTTCTAACCTGTTGCCT (site CCGCACACTAG) | 0.206

Sequence | recombinant barcode read abundance (log10)
GCGCACACTTGGGTTCTAACCTGTTGCCT (site GCGCACACTAG) | 1.05
GCGCACACTTGGGTTCTAACCTGTTGCCT (site TCGCACACTAG) | 0.319
GCGCATCCTTGGGTTCTAACCTGTTGCCT (site GCGAATCCTAG) | 0.719
GCGCATCCTTGGGTTCTAACCTGTTGCCT (site GCGCATCCTAG) | 0.753
GCGCATCCTTGGGTTCTAACCTGTTGCCT (site GCGGATCCTAG) | 0.306
GCGCATCCTTGGGTTCTAACCTGTTGCCT (site GCGTATCCTAG) | 0.0569
GCGCGTTCTTGGGTTCTAACCTGTTGCCT (site GCGAGCTCTAG) | 0.054
GCGCGTTCTTGGGTTCTAACCTGTTGCCT (site GCGCGTTCTAG) | 1.2
GCGGCTTCTTGGGTTCTAACCTGTTGCCT (site GAGGCTTCTAG) | 0.0638
GCGGCTTCTTGGGTTCTAACCTGTTGCCT (site GCGGCTTCTAG) | 0.868
GCGGCTTCTTGGGTTCTAACCTGTTGCCT (site GGGGCTTCTAG) | 0.0151
GCGGCTTCTTGGGTTCTAACCTGTTGCCT (site GTGGCTTCTAG) | 0.121
GCGTCGGCTTGGGTTCTAACCTGTTGCCT (site GCATCGGCTAG) | 0.474
GCGTCGGCTTGGGTTCTAACCTGTTGCCT (site GCCTCGGCTAG) | 0.177
GCGTCGGCTTGGGTTCTAACCTGTTGCCT (site GCGTCGGCTAG) | 0.183
GCGTCGGCTTGGGTTCTAACCTGTTGCCT (site GCTTCGGCTAG) | 0.405
GCGTGCCCTTGGGTTCTAACCTGTTGCCT (site CCGTGCCCTAG) | 0.552
GCGTGCCCTTGGGTTCTAACCTGTTGCCT (site GCGTGCCCTAG) | 0.82
GCTAACCCTTGGGTTCTAACCTGTTGCCT (site ACTAAACCTAG) | 0.5
GCTAACCCTTGGGTTCTAACCTGTTGCCT (site GCTAACCCTAG) | 1.18
GCTAGTTCTTGGGTTCTAACCTGTTGCTT (site ACTCGTTCTAA) | 0.0742
GCTAGTTCTTGGGTTCTAACCTGTTGCTT (site GCTAGTTCTAA) | 0.351

Sequence | recombinant barcode read abundance (log10)
GCTCATACTTGGGTTCTAACCTGTTGCCT (site CACGCGCCTCC) | 0.0433
GCTCATACTTGGGTTCTAACCTGTTGCCT (site GCTCATACTAG) | 0.714
GCTCTAGCTTGGGTTCTAACCTGTTGCTA (site ACTCTAGCTGA) | 0.143
GCTCTAGCTTGGGTTCTAACCTGTTGCTA (site GCTCTAGCTTA) | 0.515
GCTGCGACTTGGGTTCTAACCTGTTGCCT (site GCAGCGACTAG) | 0.17
GCTGCGACTTGGGTTCTAACCTGTTGCCT (site GCCGCGACTAG) | 0.101
GCTGCGACTTGGGTTCTAACCTGTTGCCT (site GCGGCGACTAG) | 0.0147
GCTGCGACTTGGGTTCTAACCTGTTGCCT (site GCTGCGACTAG) | 0.972
GCTGCGCCTTGGGTTCTAACCTGTTGCCT (site GCCGGGCCTAG) | 0.225
GCTGCGCCTTGGGTTCTAACCTGTTGCCT (site GCTGCGCCTAG) | 1.05
GCTGGGTCTTGGGTTCTAACCTGTTGCTT (site GCAGGGTCTAA) | 0.466
GCTGGGTCTTGGGTTCTAACCTGTTGCTT (site GCCGGGTCTAA) | 0.284
GCTGGGTCTTGGGTTCTAACCTGTTGCTT (site GCGGGGTCTAA) | 0.0202
GCTGGGTCTTGGGTTCTAACCTGTTGCTT (site GCTGGGTCTAA) | 1.65
GCTTGGACTTGGGTTCTAACCTGTTGCAG (site CCTTGGACTTT) | 0.175
GCTTGGACTTGGGTTCTAACCTGTTGCAG (site GCTTGGACTCT) | 1.72
GGAAGGCCTTGGGTTCTAACCTGTTGCTT (site GGAAGGCCTAA) | 0.221
GGAAGGCCTTGGGTTCTAACCTGTTGCTT (site TTGGTCACTTG) | 0.0545
GGACACTCTTGGGTTCTAACCTGTTGCTA (site GGACACTCTAG) | 2.32
GGACACTCTTGGGTTCTAACCTGTTGCTA (site GGACACTCTTA) | 2.15
GGACATTCTTGGGTTCTAACCTGTTGCTT (site GGACATTCTAA) | 0.319
GGACATTCTTGGGTTCTAACCTGTTGCTT (site TGACATTCTAA) | 0.0458

Sequence | recombinant barcode read abundance (log10)
GGACCCTCTTGGGTTCTAACCTGTTGCAC (site GGACCCTCTGT) | 1.76
GGACCCTCTTGGGTTCTAACCTGTTGCAC (site TACAAGACTAC) | 0.0797
GGACCTCCTTGGGTTCTAACCTGTTGCTT (site GGACCTCCTAA) | 1.33
GGACCTCCTTGGGTTCTAACCTGTTGCTT (site GGACCTCCTAC) | 0.221
GGACCTCCTTGGGTTCTAACCTGTTGCTT (site GGACCTCCTAG) | 1.27
GGACCTCCTTGGGTTCTAACCTGTTGCTT (site GGACCTCCTAT) | 1.32
GGACGCACTTGGGTTCTAACCTGTTGCGG (site CCTAAGCCTAT) | 0.604
GGACGCACTTGGGTTCTAACCTGTTGCGG (site GGACGCACTCC) | 2.4
GGACGCCCTTGGGTTCTAACCTGTTGCCT (site GGACGACCTAG) | 0.427
GGACGCCCTTGGGTTCTAACCTGTTGCCT (site GGACGCCCTAG) | 1.35
GGACGCCCTTGGGTTCTAACCTGTTGCCT (site GGACGGCCTAG) | 0.186
GGACGCCCTTGGGTTCTAACCTGTTGCCT (site GGACGTCCTAG) | 0.426
GGACGTCCTTGGGTTCTAACCTGTTGCCT (site GGACGACCTAG) | 0.0935
GGACGTCCTTGGGTTCTAACCTGTTGCCT (site GGACGCCCTAG) | 0.369
GGACGTCCTTGGGTTCTAACCTGTTGCCT (site GGACGGCCTAG) | 0.0468
GGACGTCCTTGGGTTCTAACCTGTTGCCT (site GGACGTCCTAG) | 0.734
GGAGAGTCTTGGGTTCTAACCTGTTGCCT (site GAAGAGTCTAG) | 2.17
GGAGAGTCTTGGGTTCTAACCTGTTGCCT (site GCAGAGTCTAG) | 0.995
GGAGAGTCTTGGGTTCTAACCTGTTGCCT (site GGAGAGTCTAG) | 2.45
GGAGAGTCTTGGGTTCTAACCTGTTGCCT (site GTAGAGTCTAG) | 1.09

— the supplement of paper PMC11208160
